Assay: xn = mol fraction of the nth substance listed
Settings: for viscosity / speed of sound: 102 kPa, Liquid; for viscosity: Concentric cylinders viscometry; for speed of sound: Frequency=3 MHz, Sing-around technique in a fixed-path interferometer; for surface tension liquid-gas: 294.4 K, Sessile Drop

CCCCC1CCCCC1 [butylcyclohexane] + Cc1ccccc1
Settings | speed of sound [m/s] | viscosity [mPa·s]
293.15 K, x1 = 0.0681 | 1321.1 | 0.622
293.15 K, x1 = 0.1544 | 1316.7 | 0.649
293.15 K, x1 = 0.2197 | 1314.5 | 0.678
293.15 K, x1 = 0.3045 | 1313 | 0.721
293.15 K, x1 = 0.3964 | 1312.8 | 0.774
293.15 K, x1 = 0.4964 | 1313.5 | 0.838
293.15 K, x1 = 0.6046 | 1315.6 | 0.916
293.15 K, x1 = 0.7244 | 1318.9 | 1.02
293.15 K, x1 = 0.8548 | 1323.3 | 1.16
293.15 K, x1 = 1 | – | 1.31
303.15 K, x1 = 0.0681 | 1278.6 | 0.552
303.15 K, x1 = 0.1544 | 1274.6 | 0.578
303.15 K, x1 = 0.2197 | 1272.7 | 0.603
303.15 K, x1 = 0.3045 | 1271.6 | 0.638
303.15 K, x1 = 0.3964 | 1271.6 | 0.683
303.15 K, x1 = 0.4964 | 1272.7 | 0.735
303.15 K, x1 = 0.6046 | 1275 | 0.8
303.15 K, x1 = 0.7244 | 1278.6 | 0.885
303.15 K, x1 = 0.8548 | 1283.3 | 0.991
303.15 K, x1 = 1 | – | 1.12
313.15 K, x1 = 0.0681 | 1236.5 | 0.495
313.15 K, x1 = 0.1544 | 1232.9 | 0.518
313.15 K, x1 = 0.2197 | 1231.4 | 0.538
313.15 K, x1 = 0.3045 | 1230.6 | 0.568
313.15 K, x1 = 0.3964 | 1230.9 | 0.607
313.15 K, x1 = 0.4964 | 1232.3 | 0.651
313.15 K, x1 = 0.6046 | 1234.9 | 0.704
313.15 K, x1 = 0.7244 | 1238.8 | 0.775
313.15 K, x1 = 0.8548 | 1243.7 | 0.862
313.15 K, x1 = 1 | – | 0.961
323.15 K, x1 = 0.0681 | 1194.9 | 0.446
323.15 K, x1 = 0.1544 | 1191.8 | 0.466
323.15 K, x1 = 0.2197 | 1190.6 | 0.484
323.15 K, x1 = 0.3045 | 1190.1 | 0.51
323.15 K, x1 = 0.3964 | 1190.7 | 0.541
323.15 K, x1 = 0.4964 | 1192.5 | 0.58
323.15 K, x1 = 0.6046 | 1195.4 | 0.625
323.15 K, x1 = 0.7244 | 1199.6 | 0.683
323.15 K, x1 = 0.8548 | 1204.8 | 0.754
323.15 K, x1 = 1 | – | 0.837
333.15 K, x1 = 0.0681 | 1153.9 | 0.405
333.15 K, x1 = 0.1544 | 1151.2 | 0.422
333.15 K, x1 = 0.2197 | 1150.3 | 0.437
333.15 K, x1 = 0.3045 | 1150.2 | 0.46
333.15 K, x1 = 0.3964 | 1151.1 | 0.486
333.15 K, x1 = 0.4964 | 1153.2 | 0.519
333.15 K, x1 = 0.6046 | 1156.5 | 0.558
333.15 K, x1 = 0.7244 | 1161 | 0.604
333.15 K, x1 = 0.8548 | 1166.5 | 0.663
333.15 K, x1 = 1 | – | 0.735
343.15 K, x1 = 0.0681 | – | 0.37
343.15 K, x1 = 0.1544 | – | 0.379
343.15 K, x1 = 0.2197 | – | 0.397
343.15 K, x1 = 0.3045 | – | 0.418
343.15 K, x1 = 0.3964 | – | 0.438
343.15 K, x1 = 0.4964 | – | 0.469
343.15 K, x1 = 0.6046 | – | 0.502
343.15 K, x1 = 0.7244 | – | 0.535
343.15 K, x1 = 0.8548 | – | 0.586
343.15 K, x1 = 1 | – | 0.648
353.15 K, x1 = 0.0681 | – | 0.325
353.15 K, x1 = 0.1544 | – | 0.345
353.15 K, x1 = 0.2197 | – | 0.356
353.15 K, x1 = 0.3045 | – | 0.373
353.15 K, x1 = 0.3964 | – | 0.395
353.15 K, x1 = 0.4964 | – | 0.426
353.15 K, x1 = 0.6046 | – | 0.451
353.15 K, x1 = 0.7244 | – | 0.49
353.15 K, x1 = 0.8548 | – | 0.532
353.15 K, x1 = 1 | – | 0.576

Settings | surface tension liquid-gas [mN/m]
x1 = 0.0681 | 28.1
x1 = 0.1544 | 27.7
x1 = 0.2197 | 27.5
x1 = 0.3045 | 27.3
x1 = 0.3964 | 27.2
x1 = 0.4964 | 27
x1 = 0.6046 | 26.9
x1 = 0.7244 | 26.7

CCCCC1CCCCC1 [butylcyclohexane] + CCCCCCCCCCCCCCCC
Settings | speed of sound [m/s] | viscosity [mPa·s]
293.15 K, x1 = 0.1524 | 1353.6 | 3.07
293.15 K, x1 = 0.2876 | 1349.9 | 2.76
293.15 K, x1 = 0.4091 | 1346.4 | 2.48
293.15 K, x1 = 0.5182 | 1343.3 | 2.25
293.15 K, x1 = 0.6173 | 1340.4 | 2.04
293.15 K, x1 = 0.7078 | 1337.4 | 1.86
293.15 K, x1 = 0.7902 | 1334.9 | 1.7
293.15 K, x1 = 0.8658 | 1332.7 | 1.55
293.15 K, x1 = 0.9355 | 1330.4 | 1.42
293.15 K, x1 = 1 | – | 1.31
303.15 K, x1 = 0.1524 | 1316.4 | 2.46
303.15 K, x1 = 0.2876 | 1312.6 | 2.23
303.15 K, x1 = 0.4091 | 1309 | 2.03
303.15 K, x1 = 0.5182 | 1305.6 | 1.85
303.15 K, x1 = 0.6173 | 1302.5 | 1.69
303.15 K, x1 = 0.7078 | 1299.2 | 1.55
303.15 K, x1 = 0.7902 | 1296.4 | 1.42
303.15 K, x1 = 0.8658 | 1293.8 | 1.31
303.15 K, x1 = 0.9355 | 1291.2 | 1.21
303.15 K, x1 = 1 | – | 1.12
313.15 K, x1 = 0.1524 | 1279.7 | 2.01
313.15 K, x1 = 0.2876 | 1275.8 | 1.84
313.15 K, x1 = 0.4091 | 1272 | 1.68
313.15 K, x1 = 0.5182 | 1268.5 | 1.54
313.15 K, x1 = 0.6173 | 1265.1 | 1.42
313.15 K, x1 = 0.7078 | 1261.5 | 1.31
313.15 K, x1 = 0.7902 | 1258.3 | 1.21
313.15 K, x1 = 0.8658 | 1255.3 | 1.12
313.15 K, x1 = 0.9355 | 1252.3 | 1.03
313.15 K, x1 = 1 | – | 0.961
323.15 K, x1 = 0.1524 | 1243.6 | 1.68
323.15 K, x1 = 0.2876 | 1239.6 | 1.54
323.15 K, x1 = 0.4091 | 1235.5 | 1.42
323.15 K, x1 = 0.5182 | 1231.8 | 1.31
323.15 K, x1 = 0.6173 | 1228.2 | 1.21
323.15 K, x1 = 0.7078 | 1224.3 | 1.12
323.15 K, x1 = 0.7902 | 1220.8 | 1.04
323.15 K, x1 = 0.8658 | 1217.6 | 0.966
323.15 K, x1 = 0.9355 | 1214.1 | 0.897
323.15 K, x1 = 1 | – | 0.837
333.15 K, x1 = 0.1524 | 1208.1 | 1.42
333.15 K, x1 = 0.2876 | 1203.9 | 1.31
333.15 K, x1 = 0.4091 | 1199.7 | 1.21
333.15 K, x1 = 0.5182 | 1195.7 | 1.13
333.15 K, x1 = 0.6173 | 1191.8 | 1.05
333.15 K, x1 = 0.7078 | 1187.6 | 0.972
333.15 K, x1 = 0.7902 | 1183.9 | 0.906
333.15 K, x1 = 0.8658 | 1180.3 | 0.844
333.15 K, x1 = 0.9355 | 1176.4 | 0.783
333.15 K, x1 = 1 | – | 0.735
343.15 K, x1 = 0.1524 | – | 1.22
343.15 K, x1 = 0.2876 | – | 1.13
343.15 K, x1 = 0.4091 | – | 1.05
343.15 K, x1 = 0.5182 | – | 0.977
343.15 K, x1 = 0.6173 | – | 0.912
343.15 K, x1 = 0.7078 | – | 0.851
343.15 K, x1 = 0.7902 | – | 0.797
343.15 K, x1 = 0.8658 | – | 0.745
343.15 K, x1 = 0.9355 | – | 0.694
343.15 K, x1 = 1 | – | 0.648
353.15 K, x1 = 0.1524 | – | 1.06
353.15 K, x1 = 0.2876 | – | 0.987
353.15 K, x1 = 0.4091 | – | 0.921
353.15 K, x1 = 0.5182 | – | 0.86
353.15 K, x1 = 0.6173 | – | 0.805
353.15 K, x1 = 0.7078 | – | 0.753
353.15 K, x1 = 0.7902 | – | 0.706
353.15 K, x1 = 0.8658 | – | 0.662
353.15 K, x1 = 0.9355 | – | 0.619
353.15 K, x1 = 1 | – | 0.576

Settings | surface tension liquid-gas [mN/m]
x1 = 0.1524 | 26.9
x1 = 0.2876 | 26.9
x1 = 0.4091 | 26.9
x1 = 0.5182 | 26.8
x1 = 0.6173 | 26.8
x1 = 0.7078 | 26.8
x1 = 0.7902 | 26.7
x1 = 0.8658 | 26.7
x1 = 0.9355 | 26.7

Source: the NIST ThermoML archive (doi:10.1021/acs.jced.6b00516)
